Data from patent US8859541B2, “6-alkynylpyridines” (Boehringer Ingelheim International GmbH, priority 2012, dated 2014).

Each compound was assayed against T1, XIAP BIR3 (Homo sapiens, UniProt P98170) (assay: XIAP BIR3 binding assay (DELFIA), displacement of SMAC peptide). Details: GST-fusion BIR3 domain (aa 241 to 356) 10 nM, SMAC peptide 10 nM; activity of the (S)-isomers.
T1 construct: covering amino acids 241 to 356; XIAP BIR3; made in house; host or cells: E. coli
Method in brief: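 Each BIR3 domain (10 nM) incubated with biotinylated N-terminal SMAC peptide (10 nM) and compound for 1 h at room temp in Tris/NaCl buffer with BSA, DTT and Triton X-100. Captured on streptavidin plates; bound BIR3 detected by Eu-labelled anti-GST time-resolved fluorescence, giving IC50 values.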

T1 sequence (P98170 241-356): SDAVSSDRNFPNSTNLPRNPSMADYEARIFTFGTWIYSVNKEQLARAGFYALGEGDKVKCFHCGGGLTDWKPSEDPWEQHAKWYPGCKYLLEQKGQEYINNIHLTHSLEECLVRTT

| IC50 [nM] | SMILES |
| --- | --- |
| 767 | CNC(C)C(=O)Nc1ccc(-c2cncnc2C(C)C)c(C#Cc2ccc3ccccc3c2)n1 (centres unmarked) [Example 159, 2-(methylamino)-N-[6-(2-naphthalen-2-ylethynyl)-5-(4-propan-2-ylpyrimidin-5-yl)-pyridin-2-yl]propanamide] |
| 1070 | CC(N)C(=O)Nc1ccc(-c2ccc(-c3ccc(F)cc3)nc2)c(C#Cc2ccccc2)n1 (centres unmarked) [Example 112, 2-amino-N-[5-[6-(4-fluorophenyl)pyridin-3-yl]-6-(2-phenylethynyl)pyridin-2-yl]-propanamide] |
| 3180 | CC(N)C(=O)Nc1cc(Cl)cc(C#Cc2ccccc2)n1 (centres unmarked) [Example 197, 2-amino-N-[4-chloro-6-(2-phenylethynyl)pyridin-2-yl]propanamide] |
| 276 | CNc1ncc(-c2ccc(NC(=O)C(C)NC)nc2C#Cc2ccc3ccccc3c2)cn1 (centres unmarked) [Example 157, 2-(methylamino)-N-[5-[2-(methylamino)pyrimidin-5-yl]-6-(2-naphthalen-2-ylethynyl)-pyridin-2-yl]propanamide] |
| 7190 | CC(N)C(=O)Nc1cccc(C#Cc2cscn2)n1 (centres unmarked) [Example 238, 2-amino-N-[6-[2-(1,3-thiazol-4-yl)ethynyl]pyridin-2-yl]propanamide] |
| 609 | CNC(C)C(=O)Nc1ccc(-c2c(C)ncn2Cc2ccccc2)c(C#Cc2ccccc2)n1 (centres unmarked) [Example 196, N-[5-(3-benzyl-5-methylimidazol-4-yl)-6-(2-phenylethynyl)pyridin-2-yl]-2-(methylamino)propan-amide] |
| 142 | CNC(C)C(=O)Nc1ccc(-c2c(C)nc3ccccn23)c(C#Cc2ccc(C#N)c(C)c2)n1 (centres unmarked) [Example 38, N-[6-[2-(4-cyano-3-methyl-phenyl)ethynyl]-5-(2-methyl-imidazo[1,2-a]pyridin-3-yl)-pyridin-2-yl]-2-(methylamino)-propanamide] |
| 794 | CNC(C)C(=O)Nc1ccc(N(C)C(=O)C2CCCC2)c(C#Cc2ccccc2)n1 (centres unmarked) [Example 248, N-methyl-N-[6-[[2-(methyl-amino)propanoyl]amino]-2-(2-phenylethynyl)pyridin-3-yl]-cyclopentanecarboxamide] |
| 3560 | CC(N)C(=O)Nc1cccc(C#CCc2ccccc2)n1 (centres unmarked) [Example 224, 2-amino-N-[6-(3-phenylprop-1-ynyl)pyridin-2-yl]propanamide] |
| 1790 | Cc1cc(C#Cc2ccccc2)nc(NC(=O)C(C)N)c1 (centres unmarked) [Example 200, 2-amino-N-[4-methyl-6-(2-phenylethynyl)pyridin-2-yl]propanamide] |
| 284 | CNC(C)C(=O)Nc1ccc(-c2cnc(N3CCCC3)nc2)c(C#Cc2ccc3ccccc3c2)n1 (centres unmarked) [Example 155, 2-(methylamino)-N-[6-(2-naphthalen-2-ylethynyl)-5-(2-pyrrolidin-1-ylpyrimidin-5-yl)-pyridin-2-yl]propanamide] |
| 243 | CC(N)C(=O)Nc1ccc(-c2cncc(F)c2)c(C#Cc2ccccc2)n1 (centres unmarked) [Example 106, 2-amino-N-[5-(5-fluoropyridin-3-yl)-6-(2-phenylethynyl)pyridin-2-yl]propanamide] |
| 898 | CC(N)C(=O)Nc1ccc(C2CCCC2)c(C#Cc2ccccc2)n1 (centres unmarked) [Example 166, 2-amino-N-[5-cyclopentyl-6-(2-phenylethynyl)pyridin-2-yl]-propan-amide] |
| 305 | CNC(C)C(=O)Nc1ccc(-c2cc(C(=O)OC)ccc2OC)c(C#Cc2ccccc2)n1 (centres unmarked) [Example 131, methyl 4-methoxy-3-[6-[[2-(methylamino)propanoyl]amino]-2-(2-phenylethynyl)pyridin-3-yl]-benzoate] |
| 453 | CNC(C)C(=O)Nc1ccc(-c2c(C)nc3ccccn23)c(C#Cc2ccc3cc(F)ccc3c2)n1 (centres unmarked) [Example 51, N-[6-[2-(6-fluoronaphthalen-2-yl)ethynyl]-5-(2-methyl-imidazo[1,2-a]pyridin-3-yl)-pyridin-2-yl]-2-(methylamino)-propanamide] |
| 3180 | CNC(C)C(=O)Nc1ccc(-c2c(-c3ccccc3)noc2C)c(C#Cc2ccc3ccccc3c2)n1 (centres unmarked) [Example 156, 2-(methylamino)-N-[5-(5-methyl-3-phenyl-1,2-oxazol-4-yl)-6-(2-naphthalen-2-ylethynyl)pyridin-2-yl]propanamide] |
| 558 | CNC(C)C(=O)Nc1ccc(-c2cccc(C(=O)O)c2OC)c(C#Cc2ccccc2)n1 (centres unmarked) [Example 141] |
| 260 | CNC(C)C(=O)Nc1ccc(-c2cscc2-c2ccncc2)c(C#Cc2ccccc2)n1 (centres unmarked) [Example 180, 2-(methylamino)-N-[6-(2-phenyl-ethynyl)-5-(4-pyridin-4-ylthiophen-3-yl)pyridin-2-yl]-propanamide] |
| 540 | CNC(C)C(=O)Nc1ccc(-c2c(C)ccc3c2cnn3C)c(C#Cc2ccc3ncccc3c2)n1 (centres unmarked) [Example 21, N-[5-(1,5-dimethylindazol-4-yl)-6-(2-quinolin-6-ylethynyl)-pyridin-2-yl]-2-(methyl-amino)propanamide] |
| 653 | CNC(C)C(=O)Nc1ccc(-c2cncnc2C)c(C#Cc2ccc3cncnc3c2)n1 (centres unmarked) [Example 25, 2-(methylamino)-N-[5-(4-methylpyrimidin-5-yl)-6-(2-quinazolin-7-ylethynyl)-pyridin-2-yl]propanamide] |
| 141 | CNC(C)C(=O)Nc1ccc(-c2c[nH]nc2C(=O)OC)c(C#Cc2ccccc2)n1 (centres unmarked) [Example 193, methyl 4-[6-[[2-(methylamino)-propanoyl]amino]-2-(2-phenyl-ethynyl)pyridin-3-yl]-1H-pyrazole-3-carboxylate] |
| 1470 | CNC(C)C(=O)Nc1ccc(N(C)C(=O)C2CCOCC2)c(C#Cc2ccccc2)n1 (centres unmarked) [Example 244, N-methyl-N-[6-[2-(methylamino)propanoylamino]-2-(2-phenylethynyl)pyridin-3-yl]oxane-4-carboxamide] |
| 1990 | CNC(C)C(=O)Nc1ccc(-c2cccc(C(F)(F)F)c2OC)c(C#Cc2ccccc2)n1 (centres unmarked) [Example 140, N-[5-[2-methoxy-3-(trifluoromethyl)phenyl]-6-(2-phenylethynyl)pyridin-2-yl]-2-(methylamino)propanamide] |
| 1010 | CC(N)C(=O)Nc1ccc(-c2ccccc2)c(C#Cc2ccccc2)n1 (centres unmarked) [Example 107, 2-amino-N-[5-phenyl-6-(2-phenylethynyl)pyridin-2-yl]-propanamide] |
| 874 | CCCc1ccc(NC(=O)C(C)N)nc1C#Cc1ccccc1 (centres unmarked) [Example 167, 2-amino-N-[6-(2-phenylethynyl)-5-propylpyridin-2-yl]propanamide] |
| 351 | CNC(C)C(=O)Nc1ccc(-c2cncnc2)c(C#Cc2ccc(-c3ccccn3)s2)n1 (centres unmarked) [Example 8, 2-(methylamino)-N-[6-[2-(5-pyridin-2-ylthiophen-2-yl)-ethynyl]-5-pyrimidin-5-ylpyridin-2-yl]propanamide] |
| 1970 | CC(N)C(=O)Nc1cccc(C#Cc2c(Cl)cccc2Cl)n1 (centres unmarked) [Example 236, 2-amino-N-[6-[2-(2,6-dichlorophenyl)ethynyl]pyridin-2-yl]propanamide] |
| 335 | CNC(C)C(=O)Nc1ccc(-c2c(C)nn(C)c2C)c(C#Cc2ccc3cnccc3c2)n1 (centres unmarked) [Example 164, N-[6-(2-isoquinolin-6-ylethynyl)-5-(1,3,5-trimethylpyrazol-4-yl)-pyridin-2-yl]-2-(methylamino)-propanamide] |
| 1150 | CNC(C)C(=O)Nc1ccc(-c2cncc3ccccc23)c(C#Cc2ccc(OC)cc2)n1 (centres unmarked) [Example 3, N-[5-isoquinolin-4-yl-6-[2-(4-methoxyphenyl)ethynyl]-pyridin-2-yl]-2-(methyl-amino)propanamide] |
